{
  "source": "ChEMBL document CHEMBL5465560",
  "about": "“Selectivity Literature for EUbOPEN Chemogenomic Library” (2024)",
  "key": {"[1]": {"target": "Mitogen-activated protein kinase 7 (Homo sapiens) (UniProt Q13164)", "sequence (Q13164 2-816 limits assumed)": "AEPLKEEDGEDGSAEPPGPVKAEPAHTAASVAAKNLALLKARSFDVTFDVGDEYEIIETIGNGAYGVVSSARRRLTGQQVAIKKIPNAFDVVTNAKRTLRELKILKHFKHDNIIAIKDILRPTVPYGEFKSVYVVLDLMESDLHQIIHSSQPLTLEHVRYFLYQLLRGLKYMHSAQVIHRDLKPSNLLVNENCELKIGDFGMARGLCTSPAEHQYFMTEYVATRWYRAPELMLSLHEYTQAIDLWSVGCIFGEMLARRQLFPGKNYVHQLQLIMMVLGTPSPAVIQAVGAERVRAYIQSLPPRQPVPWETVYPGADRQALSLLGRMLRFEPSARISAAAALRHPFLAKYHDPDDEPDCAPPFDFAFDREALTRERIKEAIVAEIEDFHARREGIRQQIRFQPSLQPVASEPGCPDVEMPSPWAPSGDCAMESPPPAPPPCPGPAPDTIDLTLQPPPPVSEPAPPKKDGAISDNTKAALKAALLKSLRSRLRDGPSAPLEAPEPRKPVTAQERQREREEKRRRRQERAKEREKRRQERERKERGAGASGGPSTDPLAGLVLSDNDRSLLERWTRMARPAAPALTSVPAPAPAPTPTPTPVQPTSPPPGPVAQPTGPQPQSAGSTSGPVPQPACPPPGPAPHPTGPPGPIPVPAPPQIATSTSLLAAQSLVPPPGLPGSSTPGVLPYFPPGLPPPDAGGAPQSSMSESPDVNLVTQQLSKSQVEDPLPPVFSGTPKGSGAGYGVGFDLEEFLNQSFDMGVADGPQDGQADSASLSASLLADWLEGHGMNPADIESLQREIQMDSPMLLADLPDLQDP", "assay": "Selectivity interaction (KinomeScan (DiscoverX)) EUB0000229b MAPK7", "conditions": "at 10 µM"}, "[2]": {"target": "T1, Phosphatidylinositol 4,5-bisphosphate 3-kinase catalytic subunit delta isoform (Homo sapiens) (UniProt O00329)", "T1 sequence (whole entry)": "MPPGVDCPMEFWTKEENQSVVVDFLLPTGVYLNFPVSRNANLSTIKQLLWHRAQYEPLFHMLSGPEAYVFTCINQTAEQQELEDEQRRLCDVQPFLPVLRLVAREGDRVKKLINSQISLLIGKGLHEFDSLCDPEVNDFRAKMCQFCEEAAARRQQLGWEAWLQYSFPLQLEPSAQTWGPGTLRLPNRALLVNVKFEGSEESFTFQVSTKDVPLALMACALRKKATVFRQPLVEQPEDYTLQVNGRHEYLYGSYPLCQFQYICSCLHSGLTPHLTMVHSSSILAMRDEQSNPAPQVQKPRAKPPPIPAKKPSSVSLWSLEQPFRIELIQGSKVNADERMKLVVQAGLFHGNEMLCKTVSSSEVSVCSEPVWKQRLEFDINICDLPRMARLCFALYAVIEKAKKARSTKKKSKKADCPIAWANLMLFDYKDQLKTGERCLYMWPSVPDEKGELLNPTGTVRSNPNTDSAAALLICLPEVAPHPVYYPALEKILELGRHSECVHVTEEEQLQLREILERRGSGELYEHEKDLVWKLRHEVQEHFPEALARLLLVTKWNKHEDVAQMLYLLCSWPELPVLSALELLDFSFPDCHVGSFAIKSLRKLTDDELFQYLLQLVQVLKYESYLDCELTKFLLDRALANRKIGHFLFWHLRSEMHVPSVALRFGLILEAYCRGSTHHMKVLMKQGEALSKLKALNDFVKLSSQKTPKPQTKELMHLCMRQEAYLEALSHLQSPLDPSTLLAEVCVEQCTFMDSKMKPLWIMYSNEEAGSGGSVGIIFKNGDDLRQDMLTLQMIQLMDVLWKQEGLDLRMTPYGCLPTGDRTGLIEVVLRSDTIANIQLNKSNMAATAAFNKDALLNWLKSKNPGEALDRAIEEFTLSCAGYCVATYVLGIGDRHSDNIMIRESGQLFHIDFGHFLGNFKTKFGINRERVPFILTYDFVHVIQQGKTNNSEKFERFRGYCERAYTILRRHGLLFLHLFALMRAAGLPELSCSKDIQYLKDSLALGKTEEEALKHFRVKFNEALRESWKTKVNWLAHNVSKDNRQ", "assay": "Selectivity interaction (KinomeScan (DiscoverX)) EUB0000229b PIK3CD", "conditions": "at 10 µM"}, "[3]": {"target": "Protein kinase C alpha type (Homo sapiens, UniProt P17252)", "assay": "Selectivity interaction (Kinase panel (33PanQinase(R) Activity Assay)) EUB0000877a PRKCA"}, "[4]": {"target": "Cyclin-dependent kinase 4 (Homo sapiens, UniProt P11802)", "sequence (P11802 whole entry)": "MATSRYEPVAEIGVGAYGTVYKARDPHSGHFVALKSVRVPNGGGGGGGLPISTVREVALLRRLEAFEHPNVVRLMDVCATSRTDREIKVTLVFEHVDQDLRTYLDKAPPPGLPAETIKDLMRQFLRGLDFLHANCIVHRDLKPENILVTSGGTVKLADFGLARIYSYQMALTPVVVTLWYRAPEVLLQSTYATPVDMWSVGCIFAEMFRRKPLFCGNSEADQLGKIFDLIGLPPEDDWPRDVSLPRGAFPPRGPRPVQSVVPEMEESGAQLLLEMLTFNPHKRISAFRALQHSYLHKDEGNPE", "assay": "Selectivity interaction (ActivX KiNativ screen (kinase selectivity in THP-1 cell lysates)) EUB0000639a CDK4", "format": "subcellular", "conditions": "lysate"}, "[5]": {"target": "T2, Protein kinase C iota type (Homo sapiens) (UniProt P41743)", "T2 sequence (whole entry)": "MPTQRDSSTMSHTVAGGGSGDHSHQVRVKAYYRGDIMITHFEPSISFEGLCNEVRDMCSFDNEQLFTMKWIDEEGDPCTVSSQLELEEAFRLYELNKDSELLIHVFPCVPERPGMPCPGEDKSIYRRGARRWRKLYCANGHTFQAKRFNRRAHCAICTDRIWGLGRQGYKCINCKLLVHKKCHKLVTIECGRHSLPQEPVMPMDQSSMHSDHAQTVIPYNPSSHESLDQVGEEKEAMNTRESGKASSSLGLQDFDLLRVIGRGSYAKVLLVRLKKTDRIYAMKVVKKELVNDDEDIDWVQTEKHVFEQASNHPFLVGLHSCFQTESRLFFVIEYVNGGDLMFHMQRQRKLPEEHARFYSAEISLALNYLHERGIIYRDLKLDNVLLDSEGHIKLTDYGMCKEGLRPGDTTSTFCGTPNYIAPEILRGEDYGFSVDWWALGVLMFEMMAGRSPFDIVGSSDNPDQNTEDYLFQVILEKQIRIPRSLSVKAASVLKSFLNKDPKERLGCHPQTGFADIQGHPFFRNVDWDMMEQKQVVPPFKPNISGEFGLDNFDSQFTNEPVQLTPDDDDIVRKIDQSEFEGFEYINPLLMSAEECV", "assay": "Selectivity interaction (KinomeScan (DiscoverX)) EUB0000092b PRKCI", "conditions": "at 10 µM"}, "[6]": {"target": "T3, Receptor-interacting serine/threonine-protein kinase 4 (Homo sapiens) (UniProt P57078)", "T3 sequence (whole entry)": "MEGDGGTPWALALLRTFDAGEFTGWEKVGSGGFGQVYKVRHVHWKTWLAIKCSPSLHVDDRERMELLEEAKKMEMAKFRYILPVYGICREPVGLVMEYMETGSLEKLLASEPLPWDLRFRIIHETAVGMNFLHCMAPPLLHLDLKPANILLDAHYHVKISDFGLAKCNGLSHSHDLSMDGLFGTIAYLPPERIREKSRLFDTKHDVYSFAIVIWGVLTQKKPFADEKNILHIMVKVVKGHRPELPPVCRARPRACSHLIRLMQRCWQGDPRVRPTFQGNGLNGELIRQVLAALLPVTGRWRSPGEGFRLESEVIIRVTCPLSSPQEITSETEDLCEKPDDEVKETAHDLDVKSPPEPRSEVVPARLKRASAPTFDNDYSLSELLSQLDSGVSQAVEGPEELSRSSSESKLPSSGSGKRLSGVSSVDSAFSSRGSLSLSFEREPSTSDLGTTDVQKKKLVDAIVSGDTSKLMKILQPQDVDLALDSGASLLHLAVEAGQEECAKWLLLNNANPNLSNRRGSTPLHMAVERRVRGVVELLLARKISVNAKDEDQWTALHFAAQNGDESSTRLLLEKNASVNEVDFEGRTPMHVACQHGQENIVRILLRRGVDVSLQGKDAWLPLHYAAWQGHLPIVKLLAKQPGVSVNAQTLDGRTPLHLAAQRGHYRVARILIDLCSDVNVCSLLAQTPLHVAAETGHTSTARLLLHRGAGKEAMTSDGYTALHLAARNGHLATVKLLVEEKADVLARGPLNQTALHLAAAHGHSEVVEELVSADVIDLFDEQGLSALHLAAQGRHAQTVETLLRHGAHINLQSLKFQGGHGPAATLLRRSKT", "assay": "Selectivity interaction (KinomeScan (DiscoverX)) EUB0000655a RIPK4", "conditions": "at 10 µM"}, "[7]": {"target": "Serine/threonine-protein kinase 16 (Homo sapiens, UniProt O75716)", "sequence (O75716 whole entry)": "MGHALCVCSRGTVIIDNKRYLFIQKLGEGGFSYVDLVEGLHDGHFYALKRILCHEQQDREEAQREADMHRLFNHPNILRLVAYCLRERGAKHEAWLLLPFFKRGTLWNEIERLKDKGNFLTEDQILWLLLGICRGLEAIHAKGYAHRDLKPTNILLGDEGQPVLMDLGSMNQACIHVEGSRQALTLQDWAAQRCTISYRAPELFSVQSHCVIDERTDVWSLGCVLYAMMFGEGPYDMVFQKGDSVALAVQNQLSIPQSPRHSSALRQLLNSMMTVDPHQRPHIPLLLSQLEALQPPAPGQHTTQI", "assay": "Selectivity interaction (LanthaScreen Eu Kinase Binding Assay) EUB0001632a STK16", "conditions": "at 10 µM"}},
  "note": "pIC50: −log10 of the molar value.",
  "data": [
    {"smiles": "COc1cc(N(C)c2ccnc3ccc(C(F)(F)F)cc23)cc(OC)c1OC", "values": [
      {"measurement": "% binding", "setting": "[1]", "value": 87, "unit": "%"},
      {"measurement": "% binding", "setting": "[2]", "value": 86, "unit": "%"}
    ]},
    {"smiles": "CCC(=O)N1CC[C@H](Nc2ncnc3c2CN(c2cnc(OC)c(C(F)(F)F)c2)CC3)C1", "note": "[LENIOLISIB]", "values": [
      {"measurement": "pIC50", "setting": "[3]", "value": "< 5.00"}
    ]},
    {"smiles": "CC[C@@H]1[C@H](F)C(=O)N[C@@H]1COc1nccc2cc(C(N)=O)c(OC)cc12", "note": "[ZIMLOVISERTIB]", "values": [
      {"measurement": "% of inhibition", "setting": "[4]; at 0.01 µM", "value": -1.8, "unit": "%"},
      {"measurement": "% of inhibition", "setting": "[4]; at 0.04 µM", "value": -3.4, "unit": "%"},
      {"measurement": "% of inhibition", "setting": "[4]; at 0.2 µM", "value": -2.3, "unit": "%"},
      {"measurement": "% of inhibition", "setting": "[4]; at 1 µM", "value": -9.6, "unit": "%"},
      {"measurement": "% of inhibition", "setting": "[4]; at 5 µM", "value": -24.4, "unit": "%"}
    ]},
    {"smiles": "CCC(=O)N1CCN(c2ccc(-n3c(=O)ccc4cnc5ccc(-c6cnc7ccccc7c6)cc5c43)cc2C(F)(F)F)CC1", "values": [
      {"measurement": "% of control", "setting": "[5]", "value": 85, "unit": "%"}
    ]},
    {"smiles": "CN(C)CCOc1ccc(-c2nc(-c3ccncc3)c(-c3ccc4c(c3)CC/C4=N\\O)[nH]2)cc1", "values": [
      {"measurement": "% of control", "setting": "[6]", "value": 100, "unit": "%"}
    ]},
    {"smiles": "Cn1cc(-n2cnc3c(NCc4nc5cc(Cl)c(Cl)cc5[nH]4)nc(N4CCOCC4)nc32)cn1", "values": [
      {"measurement": "% of inhibition", "setting": "[7]", "value": -24.9, "unit": "%"}
    ]}
  ]
}
